Patent US10111874B2, “Combination therapies for treatment of cancer” (Araxes Pharma LLC, priority 2014, dated 2018)

Biological target: T1, KRAS G12C 1-169, his-tagged protein, GDP-loaded (Homo sapiens, UniProt P01116, G12C)
T1 construct: KRAS G12C 1-169, his-tagged protein, GDP-loaded
Assay: Biochemical assay: covalent binding to KRAS G12C analyzed by mass spectrometry; further: test concentration or dose not given here
Conditions: compounds 1-47, measured at 24 h

T1 sequence (P01116 1-169 isoform P01116-2 G12C): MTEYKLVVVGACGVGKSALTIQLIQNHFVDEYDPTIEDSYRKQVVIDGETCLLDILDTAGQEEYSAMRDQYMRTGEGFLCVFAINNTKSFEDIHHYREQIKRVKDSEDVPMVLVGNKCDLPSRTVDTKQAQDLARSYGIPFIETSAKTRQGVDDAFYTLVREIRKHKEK

Row | Compound | Binding %
1 | C=CC(=O)N1CCN(c2ncnc3cc(Cl)c(-c4ccc(Cl)cc4O)cc23)CC1 [Compound I-11, 1-(4-(7-chloro-6-(4-chloro-2-hydroxyphenyl)quinoazlin-4-yl)piperazin-1-yl)prop-2-en-1-one] | ++++ (++++indicates binding activity greater than 75%)
2 | CN(C)C/C=C/C(=O)N1CCN(c2ncnc3cc(Cl)c(-c4ccccc4Cl)cc23)CC1 [Compound I-25, (E)-1-(4-(7-chloro-6-(2-chlorophenyl)quinazolin-4-yl)piperazin-1-yl)-4-(dimethylamino)but-2-en-1-one] | ++ (++indicates binding activity greater than 25% and up to 50%)
3 | C=CC(=O)N1CCN(c2ncnc3cc(Cl)c(-c4ccc(Cl)cc4Cl)cc23)CC1 [Compound I-6, 1-(4-(7-chloro-6-(2,4-dichlorophenyl)quinazolin-4-yl)piperazin-1-yl)prop-2-en-1-one] | +++ (+++indicates binding activity greater than 50% and up to 75%)

Same assay, conditions: compounds 48-246, measured at 2 h

Row | Compound | Binding %
4 | C=CC(=O)N1CCN(c2ncnc3cc(-c4ccccc4C4(C(N)=O)CC4)c(Cl)cc23)CC1 [Compound I-176, 1-(2-(4-(4-acryloylpiperazin-1-yl)-6-chloroquinazolin-7-yl)phenyl)cyclopropanecarboxamide] | +++ (+++indicates binding activity greater than 50% and up to 75%)
5 | C=CC(=O)N1CCN(c2ncnc3cc(-c4c(OC)ccc5ccccc45)c(Cl)cc23)CC1 [Compound I-202, 1-(4-(6-chloro-7-(2-methoxynaphthalen-1-yl)quinazolin-4-yl)piperazin-1-yl)prop-2-en-1-one] | +++ (+++indicates binding activity greater than 50% and up to 75%)
6 | C=CC(=O)N1CCN(c2ncnc3cc(-c4ccccc4CC4CC4)c(Cl)cc23)CC1 [Compound I-156, 1-(4-(6-chloro-7-(2-(cyclopropylmethyl)phenyl)quinazolin-4-yl)piperazin-1-yl)prop-2-en-1-one] | ++ (++indicates binding activity greater than 25% and up to 50%)
7 | C=CC(=O)N1CCN(c2ncnc3cc(-c4c(O)ccc(F)c4F)c(Cl)cc23)CC1 [Compound I-203, 1-(4-(6-chloro-7-(2,3-difluoro-6-hydroxyphenyl)quinazolin-4-yl)piperazin-1-yl)prop-2-en-1-one] | ++++ (++++indicates binding activity greater than 75%)
8 | C=CC(=O)N1CCN(c2ncnc3c(F)c(-c4ccccc4C(N)=O)c(Cl)cc23)CC1 [Compound I-236, 2-(4-(4-acryloylpiperazin-1-yl)-6-chloro-8-fluoroquinazolin-7-yl)benzamide] | +++ (+++indicates binding activity greater than 50% and up to 75%)
9 | CC(C)/C=C(\C#N)C(=O)N1CCN(c2ncnc3cc(-c4ccccc4F)c(Cl)cc23)CC1 [Compound I-241, (E)-2-(4-(6-chloro-7-(2-fluorophenyl)quinazolin-4-yl)piperazine-1-carbonyl)-4-methylpent-2-enenitrile] | + (+indicates binding activity from 5% to 25%)
10 | C=CC(=O)N1CCN(c2ncnc3cc(-c4c(OC)ccc5[nH]ncc45)c(Cl)cc23)CC1 [Compound I-244, 1-(4-(6-chloro-7-(5-methoxy-1H-indazol-4-yl)quinazolin-4-yl)piperazin-1-yl)prop-2-en-1-one] | + (+indicates binding activity from 5% to 25%)
11 | C=CC(=O)N1CCN(c2ncnc3cc(-c4ccccc4)ccc23)CC1 [Compound I-87] | + (+indicates binding activity from 5% to 25%)
12 | C=CC(=O)N1CCN(c2ncnc3cc(Cl)c(-c4ccc(Cl)cc4)cc23)C[C@H]1CO [Compound I-63, (S)-1-(4-(7-chloro-6-(4-chlorophenyl)quinazolin-4-yl)-2-(hydroxymethyl)piperazin-1-yl)prop-2-en-1-one] | + (+indicates binding activity from 5% to 25%)
13 | C=CC(=O)N1CCN(c2ncnc3cc(-c4cccc5c4CCCN5)c(Cl)cc23)CC1 [Compound I-223, 1-(4-(6-chloro-7-(1,2,3,4-tetrahydroquinolin-5-yl)quinazolin-4-yl)piperazin-1-yl)prop-2-en-1-one] | + (+indicates binding activity from 5% to 25%)
14 | C=CC(=O)N1CCN(c2ncnc3cc(-c4ccccc4C(F)(F)F)sc23)CC1 [Compound I-166, 1-(4-(6-(2-(trifluoromethyl)phenyl)thieno[3,2-d]pyrimidin-4-yl)piperazin-1-yl)prop-2-en-1-one] | + (+indicates binding activity from 5% to 25%)

Same assay, conditions: compounds 247-342, measured at 30 min

Row | Compound | Binding %
15 | C=CC(=O)N1CCN(c2nc(-c3cncs3)nc3c(F)c(-c4c(C)ccc5[nH]ncc45)c(Cl)cc23)CC1 [Compound 332, 1-(4-(6-chloro-8-fluoro-7-(5-methyl-1H-indazol-4-yl)-2-(thiazol-5-yl)quinazolin-4-yl)piperazin-1-yl)prop-2-en-1-one] | ++ (++indicates binding activity greater than 25% and up to 50%)
16 | C=CC(=O)N1CCN(c2ncnc3c(F)c(-c4c(C)ccc5[nH]ncc45)c(F)cc23)CC1 [Compound 297, 1-(4-(6,8-difluoro-7-(5-methyl-1H-indazol-4-yl)quinazolin-4-yl)piperazin-1-yl)prop-2-en-1-one] | + (+indicates binding activity from 5% to 25%)
17 | C=CC(=O)N1CCN(c2ncnc3c(F)c(-c4c(O)cccc4F)c(C(F)(F)F)cc23)CC1 [Compound I-273, 1-(4-(8-fluoro-7-(2-dluoro-6-hydroxyphenyl)-6-(trifluoromethyl)quinaozlin-4-yl)piperazin-1-yl)prop-2-en-1-one] | ++++ (++++indicates binding activity greater than 75%)
18 | N#C/C(=C\c1cncs1)C(=O)N1CCN(c2ncnc3c(F)c(-c4c(O)cccc4F)c(Cl)cc23)CC1 [Compound I-283, (E)-2-(4-(6-chloro-8-fluoro-7-(2-fluoro-6-hydroxyphenyl)quinazolin-4-yl)piperazine-1-carbonyl)-3-(thiazol-5-yl)acrylonitrile] | ++ (++indicates binding activity greater than 25% and up to 50%)
19 | NC/C=C/C(=O)N1CCN(c2ncnc3c(F)c(-c4cc(O)cc5ccccc45)c(Cl)cc23)CC1 [Compound 335, (E)-4-amino-1-(4-(6-chloro-8-fluoro-7-(3-hydroxynaphthalen-1-yl)quinazolin-4-yl)piperazin-1-yl)but-2-en-1-one] | ++++ (++++indicates binding activity greater than 75%)

Same assay, conditions: determined at 2 hrs

Row | Compound | Binding %
20 | C=CC(=O)N1CC(N2CCN(C(=O)C(C)Nc3cc(C4CCC4)c(Cl)cc3O)CC2)C1 (centres unmarked) [II-59, 1-(3-(4-(2-(4-chloro-5-cyclobutyl-2-hydroxyphenylamino)propanoyl)piperazin-1-yl)azetidin-1-yl)prop-2-en-1-one] | ++ (++indicates binding activity greater than 20%)

Same assay, conditions: determined at 24 hrs

Row | Compound | Binding %
21 | C=CC(=O)N1CC(N2CCN(C(=O)CNc3ncc(Cl)s3)CC2)C1 [II-38, 1-(3-(4-(2-(5-chlorothiazol-2-ylamino)acetyl)piperazin-1-yl)azetidin-1-yl)prop-2-en-1-one] | + (+indicates binding activity from 5% to 15%)
22 | C=CC(=O)N1CC(N2CCN(C(=O)Cn3ccc4ccccc43)CC2)C1 [II-29, 1-(3-(4-(2-(1H-indol-1-yl)acetyl)piperazin-1-yl)azetidin-1-yl)prop-2-en-1-one] | + (+indicates binding activity from 5% to 15%)
23 | C=CC(=O)N1CC(N2CCN(C(=O)CNc3cc(Cl)c(Br)cc3O)CC2)C1 [II-28, 1-(3-(4-(2-(4-bromo-5-chloro-2-hydroxyphenylamino)-cetyl)piperazin-1-yl)azetidin-1-yl)prop-2-en-1-one] | +++ (+++indicates binding activity greater than 25% and up to 50%)
